The values below come from patent US20220073536A1 (Rigel Pharmaceuticals, Inc., priority 2003, published 2022).

Where a name gives a salt, the structure may show the parent alone.

The test system of experiment [1] is cultured human mast cells (CHMC). Put plainly: CHMC low cell density ionomycin activation: tryptase assay. As to conditions: read-out: LD Tryptase, CHMC, Iono, 3 pt. The class given is cell-based.
Experiment [2] shares this test system. Put plainly: CHMC low cell density IgE activation: tryptase assay. The class given is cell-based. As to conditions: IgE activation. A digest of the protocol:
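Tryptase release was read from supernatant with a fluorogenic substrate (30 min, room temperature) after anti-IgE challenge of cultured human mast cells (1000–1500 cells/well, low density) for 30 minutes at 37° C.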

Where [3] appears, read: Homo sapiens, Mast cell, low cell density, 3 pt.
[4] abbreviates: Homo sapiens, Mast cell, low cell density, 3 pt, read-out: LD Tryptase, CHMC, IgE, 3 pt.
Where [5] appears, read: low cell density CHMC, tryptase, 3 pt.
[6] abbreviates: low cell density CHMC, tryptase, 3 pt, read-out: LD Tryptase, CHMC, IgE, 3 pt.
Setting [7] is: low cell density CHMC, tryptase readout, 3 pt.
Where [8] appears, read: low cell density CHMC, tryptase readout, 3 pt, read-out: LD Tryptase, CHMC, IgE, 3 pt.
[9] abbreviates: low cell density CHMC, tryptase release, 3 point.
The mark [10] stands for this setting: low cell density CHMC, tryptase release, 3 point, read-out: LD Tryptase, CHMC, IgE, 3 pt.
Where [11] appears, read: low cell density CHMC, tryptase release, 8 point, read-out: LD Tryptase, CHMC, IgE, 8 pt.
[12] abbreviates: Homo sapiens, Mast cell, low cell density CHMC, tryptase, 3 pt.
Where [13] appears, read: Homo sapiens, Mast cell, low cell density CHMC, tryptase, 3 pt, read-out: LD Tryptase, CHMC, IgE, 3 pt.
Where [14] appears, read: Homo sapiens, Mast cell, low cell density CHMC, tryptase readout, 3 pt.
Where [15] appears, read: Homo sapiens, Mast cell, low cell density CHMC, tryptase readout, 3 pt, read-out: LD Tryptase, CHMC, IgE, 3 pt.
Setting [16] is: Homo sapiens, Mast cell, low cell density CHMC, tryptase release, 3 pt.
The mark [17] stands for this setting: Homo sapiens, Mast cell, low cell density CHMC, tryptase release, 3 pt, read-out: LD Tryptase, CHMC, IgE, 3 pt.
The mark [18] stands for this setting: Homo sapiens, Mast cell, low cell density CHMC, tryptase release, 8 pt, read-out: LD Tryptase, CHMC, IgE, 8 pt.

Consider `CNS(=O)(=O)c1ccc(Nc2ncc(F)c(Nc3ccc(OC(F)(F)F)c(Cl)c3)n2)cc1OC` [Compound 498, N4-(3-Chloro-4-trifluoromethoxyphenyl)-5-fluoro-N2-[4-(3-methoxyphenyl-N-methylamino)sulfonyl]-2,4-pyrimidinediamine], for which the IC50 in experiment [1] (low cell density, 3 pt) was greater than 10 µM; in experiment [2] (low cell density, 3 pt, read-out: LD Tryptase, CHMC, IgE, 3 pt) it was less than 10 µM; in experiment [2] (low cell density, 8 pt, read-out: LD Tryptase, CHMC, IgE, 8 pt), less than 10 µM.
As for `COc1ccc(Nc2ncc(F)c(N(C)c3ccc4c(c3)OCCO4)n2)c(OC)n1` [Compound 458], the IC50 in experiment [1] (setting [3]) and in experiment [2] (setting [4]) was greater than 10 µM throughout.
Take `COC(=O)c1cc(Nc2ncc(F)c(Nc3cccc(O)c3)n2)cc(-c2ncco2)c1` [Compound 518, 5-Fluoro-N4-(3-hydroxyphenyl)-N2-[5-methoxycarbonyl-3-(oxazol-2-yl)phenyl]-2,4-pyrimidinediamine]: the IC50 in experiment [1] (setting [3]) was greater than 10 µM; in experiment [2] (setting [4]) it was less than 10 µM.
Take `CC(C)(C)OC(=O)NC1CCOc2ccc(Nc3nc(Nc4ccc(-c5ncco5)cc4)ncc3F)cc21` (centres unmarked) [Compound 1289, N4-(4-N-tert-Butoxycarbonylamino-3,4-dihydro-2H-1-benzopyran-6-yl)-5-fluoro-N2-[4-(oxazol-2-yl)phenyl]-2,4-pyrimidinediamine]: the IC50 in experiment [1] (setting [5]) and in experiment [2] (setting [6]) was less than 10 µM in each case.
As to `CCOc1c(C)cc(Nc2ncc(F)c(Nc3ccc4c(n3)NC(=O)C(C)(C)O4)n2)cc1Cl` [Compound 1010, N2-(3-Chloro-4-ethoxy-5-methylphenyl)-N4-(2,2-dimethyl-3-oxo-4H-5-pyrid[1,4]oxazin-6-yl)-5-fluoro-2,4-pyrimidinediamine], the IC50 is greater than 10 µM in experiment [1] (setting [7]) and less than 10 µM in experiment [2] (setting [8]).
With `OCCOc1ccc(Nc2nc(Nc3ccc4[nH]ccc4c3)ncc2F)cc1Cl` [Compound 623, N4-[3-Chloro-4-(2-hydroxyethyleneoxy)phenyl]-5-fluoro-N2-(indol-5-yl)-2,4-pyrimidinediamine], the IC50 in experiment [1] (setting [9]), in experiment [2] (setting [10]) and in experiment [2] (setting [11]) was less than 10 µM throughout.
Turning to `CNC(=O)CNC(=O)c1ccc(Nc2ncc(F)c(Nc3ccc4c(c3)C(NC(=O)OC(C)(C)C)CCO4)n2)cc1` (racemic) [Compound 1298, (R,S)-N4-[4-(N-tert-Butoxycarbonyl)amino-3,4-dihydro-2H-1-benzopyran-6-yl]-5-fluoro-N2-[4-[N-(N-methylamino)carbonylmethylene]aminocarbonylphenyl]-2,4-pyrimidinediamine], the results for the IC50 in experiment [1] (setting [5]) and in experiment [2] (setting [6]) were greater than 10 µM and less than 10 µM, respectively.
On to `CC(C)(C)OC(=O)NC1CCOc2ccc(Nc3nc(Nc4ccc(-c5cnco5)cc4)ncc3F)cc21` (centres unmarked) [Compound 1288, N4-(4-N-tert-Butoxycarbonylamino-3,4-dihydro-2H-1-benzopyran-6-yl)-5-fluoro-N2-[4-(oxazol-5-yl)phenyl]-2,4-pyrimidinediamine], for which the IC50 in experiment [1] (setting [5]) is less than 10 µM; in experiment [2] (setting [6]) it was less than 10 µM; in experiment [2] (low cell density CHMC, tryptase, 8 pt, read-out: LD Tryptase, CHMC, IgE, 8 pt) it was less than 10 µM.
On to `COc1cc(C(N)=O)c(Nc2ncc(F)c(NC3CCCC3)n2)cc1OCc1ccccc1` [Compound 1171, N2-(2-Aminocarbonyl-5-benzoxy-4-methoxyphenyl)-N4-cyclopentyl-5-fluoro-2,4-pyrimidinediamine], for which the IC50 is greater than 10 µM in experiment [1] (setting [12]) and less than 10 µM in experiment [2] (setting [13]).
On to `CNC(=O)c1cc(Nc2ncc(F)c(Nc3ccc(OC)c(Cl)c3)n2)ccc1Cl` [Compound 451, N4-(3-Chloro-4-methoxyphenyl)-N2-[4-chloro-3-(N-methylamino)carbonylphenyl]-5-fluoro-2,4-pyrimidinediamine], for which the IC50 in experiment [1] (setting [3]) and in experiment [2] (setting [4]) was less than 10 µM throughout.
On to `CCOC(=O)N1CCN(c2cccc(Nc3ncc(F)c(Nc4cccc(NC5=NCCN5)c4)n3)c2)CC1` [Compound 1098, N2-[3-(4-Ethoxycarbonylpiperazino)phenyl]-5-fluoro-N4-[3-(N-2-imidazolin-2-yl)aminophenyl]-2,4-pyrimidinediamine], for which the IC50 in experiment [1] (setting [14]) and in experiment [2] (setting [15]) was greater than 10 µM in each case.
In the case of `CCOc1c(C)cc(Nc2ncc(F)c(Nc3ccc4c(c3)NC(=O)C(C)(C)O4)n2)cc1Cl` [Compound 1008, N2-(3-Chloro-4-ethoxy-5-methylphenyl)-N4-(2,2-dimethyl-3-oxo-4H-benz[1,4]oxazin-6-yl)-5-fluoro-2,4-pyrimidinediamine], the IC50 is less than 10 µM in experiment [1] (setting [3]); less than 10 µM in experiment [2] (setting [4]); less than 10 µM in experiment [2] (Homo sapiens, Mast cell, low cell density, 8 pt, read-out: LD Tryptase, CHMC, IgE, 8 pt).
In the case of `COc1cc(Nc2ncc(F)c(Nc3ccc4c(c3)NC(=O)CS4)n2)cc(OC)c1` [Compound 256], the IC50 in experiment [1] (setting [16]) is greater than 10 µM; in experiment [2] (setting [17]), less than 10 µM; in experiment [2] (setting [18]) it was less than 10 µM.
Regarding `CNc1ncc(F)c(N(C)c2ccc3c(c2)OCCO3)n1` [Compound 461], the IC50 in experiment [1] (setting [3]) and in experiment [2] (setting [4]) was greater than 10 µM in each case.
Turning to `CC(=O)N1CCN(c2cccc(Nc3ncc(F)c(NC4CNC4)n3)c2)CC1` [Compound 1127], the figures for the IC50 in experiment [1] (setting [12]) and in experiment [2] (setting [13]) were greater than 10 µM and less than 10 µM, respectively.
Consider `O=C1COc2ccc(Nc3nc(Nc4ccc(-c5cnco5)cc4)ncc3F)cc2N1` [Compound 224], for which the IC50 in experiment [1] (setting [16]) is greater than 10 µM; in experiment [2] (setting [17]), less than 10 µM; in experiment [2] (setting [18]) it was less than 10 µM.
As to `CNC(=O)COc1cccc(Nc2ncc(F)c(N(C)c3ccc(OC(C)C)nc3)n2)c1` [Compound 582, 5-Fluoro-N4-(2-isopropoxypyrid-5-yl)-N4-methyl-N2-[3-(N-methylamino)carbonylmethyleneoxyphenyl]-2,4-pyrimidinediamine], the IC50 was greater than 10 µM in experiment [1] (setting [9]) and less than 10 µM in experiment [2] (setting [10]).
For `Cc1cc(Nc2ncc(F)c(Nc3ccc(OCCO)c(Cl)c3)n2)cc(C)c1Cl` [Compound 622, N2-(4-Chloro-3,5-dimethylphenyl)-N4-[3-chloro-4-(2-hydroxyethyleneoxy)phenyl]-5-fluoro-2,4-pyrimidinediamine], the IC50 in experiment [1] (setting [9]) was greater than 10 µM; in experiment [2] (setting [10]), less than 10 µM; in experiment [2] (setting [11]) it was less than 10 µM.
Regarding `C[C@@H]1Oc2ccc(Nc3nc(Nc4cc(C(C)(C)C)[nH]n4)ncc3F)nc2NC1=O` [Compound 1092, (S)-N2-(5-tert-Butyl-1H-pyrazol-3-yl)-5-fluoro-N4-(2-methyl-3-oxo-2H,4H-5-pyrid[1,4]oxazin-6-yl)-2,4-pyrimidinediamine], the IC50 in experiment [1] (setting [7]) was greater than 10 µM; in experiment [2] (setting [8]) it was less than 10 µM; in experiment [2] (low cell density CHMC, tryptase readout, 8 pt, read-out: LD Tryptase, CHMC, IgE, 8 pt), less than 10 µM.
With `COc1cc(Nc2ncc(F)c(NC3CCC3)n2)cc(C(F)(F)F)c1` [Compound 1089, N4-Cyclobutyl-5-fluoro-N2-(3-methoxy-5-trifluoromethylphenyl)-2,4-pyrimidinediamine], the IC50 in experiment [1] (setting [14]) was greater than 10 µM; in experiment [2] (setting [15]) it was less than 10 µM; in experiment [2] (Homo sapiens, Mast cell, low cell density CHMC, tryptase readout, 8 pt, read-out: LD Tryptase, CHMC, IgE, 8 pt), less than 10 µM.
Take `CN1CCN(c2cccc(Nc3ncc(F)c(N(C)C4CCC4)n3)c2)CC1` [Compound 1151, N4-Cyclobutyl-5-fluoro-N4-methyl-N2-[3-(4-methylpiperazino)phenyl]-2,4-pyrimidinediamine]: the IC50 in experiment [1] (setting [12]) is greater than 10 µM; in experiment [2] (setting [13]), less than 10 µM; in experiment [2] (Homo sapiens, Mast cell, low cell density CHMC, tryptase, 8 pt, read-out: LD Tryptase, CHMC, IgE, 8 pt), less than 10 µM.
Regarding `COc1ccc(Nc2nc(Nc3ccc4c(cnn4CCCO)c3)ncc2F)cc1Cl` [Compound 827, N4-(3-Chloro-4-methoxyphenyl)-5-fluoro-N2-[1-(3-hydroxypropyl)indazol-5-yl]-2,4-pyrimidinediamine p-Toluenesulfonic Acid Salt], the results for the IC50 in experiment [1] (setting [16]) and in experiment [2] (setting [17]) were greater than 10 µM and less than 10 µM, respectively.
Consider `COc1cc(Nc2nc(Nc3ccc(OC)nc3OC)ncc2F)cc(OC)c1` [Compound 459], for which the values for the IC50 in experiment [1] (setting [3]) and in experiment [2] (setting [4]) were greater than 10 µM and less than 10 µM, respectively.
